Reference: paper PMC5929572, “Nucleobases and corresponding nucleosides display potent antiviral activities against dengue virus possibly through viral lethal mutagenesis” (PLoS Neglected Tropical Diseases, 2018)
Read-outs that look alike come from different tables or passages of the source.

What was measured:
[1] = system: DENV-2 viral replicon; assay: microbe, parasite or virus in culture; format: cell-based; conditions: for EC50: Dengue virus
Protocol: Compounds were evaluated for antiviral properties using BHK cells containing a DENV-2 viral replicon. 1.5 × 10^3 replicon-containing cells per well were plated in white opaque 96-well plates in the absence of antibiotic selection and the next day, compounds dissolved in DMSO were added to triplicate wells in culture medium. The compounds were initially tested at 10 and 50 μM final concentrations and each plate also contained DMSO alone, medium alone, and 6. Three days later, medium was replaced with a 1:1000 dilution of ViVi-Ren Live Cell Substrate (Promega) in DME minus phenol red and 10% FBS. Luminescence was measured with a Molecular Devices M5e plate reader. Mean values of triplicate wells were determined and compared to the mean value for the wells that received DMSO alone. […] The EC50 was determined by comparing luciferase activity for eight serial dilutions of the compound and DMSO treated cells using GraphPad Prism software.

[2] = system: DENV replicon cells (BHK pD2-hRucPac-2ATG30); assay: Cell viability assay (MTS) in DENV replicon cells; format: cell-based, baby hamster
[3] = Cell viability assay (MTS) in DENV replicon cells; format: cell-based, baby hamster; conditions: hamster, DENV replicon cells (BHK pD2-hRucPac-2ATG30), DENV replicon BHK cells, MTS, 72 h
[4] = system: DENV-2; assay: Sequence analysis of prM/E region clones from passaged virus (mutation frequency); format: cell-based, DENV-2 New Guinea C strain
Protocol: For qPCR determination of viral genome copy number, viral RNA was isolated from 140 μL of drug-treated or DMSO-treated infected culture supernatant using QIAamp Viral RNA mini kit (Qiagen), following manufacturer’s protocol. Viral RNA was quantified using the TaqMan RNA-to-CT 1-Step qPCR Kit (Applied Biosystems). Primers used for qPCR were 5’-[…]-3’ (forward) and 5’-[…]-3’ (reverse) amplifying a region numbering 8928–8988 in the genome (numbering starting from the beginning of genome, accession number KM204118). The qPCR FAM probe sequence is 5’-[…]-3’. Serial 10-fold dilutions of plasmid containing the NS5 gene of DENV were used to generate a standard curve for the quantification of viral RNA genome copy number based on cycle threshold (CT) values. The limit of detection for NS5 plasmid dilutions was 30 copies (S1 Fig). […] Statistical analysis via GraphPad Prism 5 software. To obtain sequence data from viral RNA isolated at each passage, cDNA was generated via M-MLV reverse transcriptase and random hexamers (New England Biolab Inc.) per manufacturer’s instructions. An approximately 1600-base fragment covering membrane protein (prM) and envelop protein gene (E) of DENV-2 viral genome was amplified using PfuUltra II Fusion HS DNA polymerase (Agilent) with primers prMEfor (5'- […]-3') and prMErev (5'- […] -3'). PCR products were purified using Qiaquick PCR purification kit (Qiagen) and then digested with EcoRI and ligated into pcDNA3.1 for sequencing. Sequence for approximately 40–50 individual clones per sample was obtained from the University of Minnesota Genomics Center. Sequences were aligned over a 980-base region that had adequate quality sequencing reads for all clones. Only mutations present in both the forward and reverse reads of a clone were counted. All incidence-based determinants of mutation frequency (Mf min, Mf max, Mfe) were calculated as described.
Virus was passaged on Huh-7 cells supplemented with 200 μM 3a, 500 μM 3b or DMSO (0.5%). Huh-7 cells were seeded in 12-well plates and inoculated with DENV-2 as described for Titer reduction experiments above except an m.o.i. of 0.01 was used. After 3 days of compound treatment, 50 μL of the harvested supernatant was used to inoculate fresh Huh-7 cells in the continued presence of compound. The virus titer in the harvested supernatant was determined by plating ten-fold serial dilutions onto single wells of a 24-well plate. The wells were washed and overlaid as described in the Titer reduction assay above. If no plaques were obtained in any of the harvested supernatant dilutions, the undiluted supernatant was used. If plaques were not detectable, the virus titer was considered to be at the limit of detection, 1 plaque (3.3 pfu/mL). Supernatant titer was determined from a single well where there were approximately 20–50 plaques when possible. This experiment was repeated three times at the compound concentrations listed.

[5] = Cell viability assay (MTS) in Huh-7 cells; format: cell-based; conditions: human
Protocol: The sensitivity of the cell lines to the compounds was examined using the 3-(4,5-dimethylthiazol-2-yl)-5-(3-carboxymethoxyphenyl)-2-(4-sulfophenyl)-2H-tetrazolium (MTS)-based tetrazolium reduction CellTiter 96 Aqueous Non-Radioactive cell proliferation assay (Promega G5430). The compounds were initially tested at 10 and 50 μM final concentrations. Each plate also contained DMSO alone, medium alone, and an inhibitory compound, 6. DENV replicon or Huh-7 cells were plated at a density of 1,500 or 8 × 10^3 cells, respectively, per well in 96-well plates containing 100 μl of culture medium overnight. Compounds were added to triplicate wells in culture medium and incubated for an additional 72 h. MTS reagent was then added to each well and incubated at 37°C in a humidified 5% CO2 atmosphere. The plates were read at various time points at a wavelength of 490 nm using a Molecular Devices M5e plate reader. Mean values of triplicate wells were determined and compared to the mean value for the wells that received DMSO alone. For compounds selected for dose-response experiments, the CC50 was determined by comparing cell viability for eight serial dilutions of the compound and DMSO treated cells using GraphPad Prism software.

[6] = system: DENV-2; assay: Virus passage in presence of compound, genome copy number by RT-qPCR (NS5); format: cell-based, DENV-2 New Guinea C strain; conditions: 3a 200 μM, Huh-7, passage 6; limit of detection 30 copies
Protocol: For qPCR determination of viral genome copy number, viral RNA was isolated from 140 μL of drug-treated or DMSO-treated infected culture supernatant using QIAamp Viral RNA mini kit (Qiagen), following manufacturer’s protocol. Viral RNA was quantified using the TaqMan RNA-to-CT 1-Step qPCR Kit (Applied Biosystems). Primers used for qPCR were 5’-[…]-3’ (forward) and 5’-[…]-3’ (reverse) amplifying a region numbering 8928–8988 in the genome (numbering starting from the beginning of genome, accession number KM204118). The qPCR FAM probe sequence is 5’-[…]-3’. Serial 10-fold dilutions of plasmid containing the NS5 gene of DENV were used to generate a standard curve for the quantification of viral RNA genome copy number based on cycle threshold (CT) values. […] Sequences were aligned over a 980-base region that had adequate quality sequencing reads for all clones. Only mutations present in both the forward and reverse reads of a clone were counted. All incidence-based determinants of mutation frequency (Mf min, Mf max, Mfe) were calculated as described.
(§1) Virus was passaged on Huh-7 cells supplemented with 200 μM 3a, 500 μM 3b or DMSO (0.5%). […] The virus titer in the harvested supernatant was determined by plating ten-fold serial dilutions onto single wells of a 24-well plate. […] Supernatant titer was determined from a single well where there were approximately 20–50 plaques when possible. […]

[7] = system: DENV-2; assay: Titer reduction assay in Huh-7 cells, plaque assay on Vero cells; format: cell-based, DENV-2 New Guinea C strain; conditions: Dengue virus, DENV2, m.o.i. 0.2, 72 h
Protocol: (§2) Huh-7 cells were seeded in 12-well plates at a density of 4×10^5 cells per well in 1 mL culture medium. The next day, cells were washed and inoculated with DENV at a multiplicity of infection (m.o.i.) of 0.2 in 500μl infection medium (MEM containing 2% FBS and 10 mM HEPES). The inoculum was removed after 1h, cells were washed with PBS and then incubated in 1 mL MEM, 2% FBS, 1% pen/strep plus compound for 72 h. Viral supernatants were clarified by centrifugation for 5 min at 1500×g and aliquoted and stored at -80°C. Viral titers were determined using a plaque assay on Vero cells. Briefly, confluent Vero cell monolayers in 24-well plates were incubated at 37°C for 1 h with duplicate 300 μl samples of 10-fold serial dilutions of viral supernatants. The cells were then washed to remove unbound viral particles and overlaid with 500ul MEM containing 1.3% methylcellulose, 5% FBS and 10mM HEPES. After 5 days of incubation at 37°C and 5% CO2, cells were washed with PBS, fixed, and stained using 1% Giemsa. Infectious virus titer (pfu/mL) was determined using the following formula: number of plaques × dilution factor × (1/inoculation volume). The viral titer was presented as the mean of duplicate samples from a dilution yielding approximately 20–50 plaques per well.

[8] = system: DENV-2; assay: Virus passage in presence of compound, supernatant titer by plaque assay; format: cell-based, DENV-2 New Guinea C strain; conditions: 3a 200 μM, Huh-7, passages 5 and 6; limit of detection 3.3 pfu/mL
Protocol: as §2, with “After 5 days of incubation at 37°C and 5% CO2, cells were washed with PBS, fixed, and stained using 1% Giemsa.” left out, “The viral titer was presented as the mean of duplicate samples from a dilution yielding approximately 20–50 plaques per well.” left out
as §1

[9] = DENV2, 72 h, DENV replicon BHK cells, luciferase, 3 days, read-out: EC50
[10] = passage 2, 3a 200 μM, 3b 500 μM, Huh-7
[11] = passage 3, 3a 200 μM, 3b 500 μM, Huh-7

In the case of `NC(=O)c1nc[nH]n1` [Compound 1a, 1,2,4-Triazole-3-carboxamide], the EC50 ([1]; DENV2, BHK, 72 h) is reported as 4.9 ± 1.6 µM, the CC50 ([2]; DENV replicon BHK cells, MTS, 72 h) is reported as > 665 µM and the cytotoxicity ([2]; at 1000 μM, DENV replicon cells) is reported as “did not show cytotoxicity”. The CC50 at 72 h [3] was > 1000 µM.

`NC(=O)c1ncn([C@@H]2O[C@H](CO)[C@@H](O)[C@H]2O)n1` [Compound 1b, ribavirin, reference compound] gave a CC50 at 72 h [3] of 20 µM.

`NC(=O)c1nc[nH]c1O` [Compound 2a, 5-Hydroxy-1H-imidazole-4-carboxamide] showed an EC50 [1, 9] of 2.4 µM and a CC50 at 72 h [3] of 23 ± 4.2 µM.

`NC(=O)c1ncn([C@@H]2O[C@H](CO)[C@@H](O)[C@H]2O)c1O` [Compound 2b, mizoribine, reference compound] gave an EC50 [1, 9] of 15 µM and a CC50 at 72 h [3] of 33 ± 12 µM.

For `NC(=O)c1nccnc1O` [Compound 3a, 3-Hydroxy-2-pyrazinecarboxamide], the “times more active than nucleobase 5a (favipiravir)” value ([1]; DENV replicon cells, EC50 compared) was 5 times, the “number of mutations per clone compared to DMSO” value ([4]; 3a 200 μM passage 4, 3b 500 μM passage 3, p < 0.0001, Mann-Whitney U) was “significant difference” and the “Mf max (maximum mutation frequency)” value [4, 10] was 24.6 per 10,000 nucleotides. For the same compound, the “Mf min (minimum mutation frequency)” value [4, 10] was 5.2 per 10,000 nucleotides, the “Mfe (entity level mutation frequency)” value [4, 10] was 2.5 ×10^−3 and the “Number of clones with mutation/total” value [4, 10] was 26/36. The “Number of different mutations” value [4, 10] was 17, the Number of haplotypes [4, 10] was 17 and the “Number of total mutations” value [4, 10] was 80. The “Transition A→G, number of mutations” value [4, 10] was 3, the “Transition C→U, number of mutations” value [4, 10] was 4 and the “Transition G→A, number of mutations” value [4, 10] was 3. The “Transition U→C, number of mutations” value [4, 10] was 1, the “Transversion A→U, number of mutations” value [4, 10] was 1 and the “Transversion G→U, number of mutations” value [4, 10] was 2. The “Transversion U→A, number of mutations” value [4, 10] was 2, the “Transversion U→G, number of mutations” value [4, 10] was 1 and the “Mf max (maximum mutation frequency)” value [4, 11] was 5.7 per 10,000 nucleotides. The “Mf min (minimum mutation frequency)” value [4, 11] was 2.7 per 10,000 nucleotides, the “Mfe (entity level mutation frequency)” value [4, 11] was 1.4 ×10^−3 and the “Number of clones with mutation/total” value [4, 11] was 12/37. The “Number of different mutations” value [4, 11] was 9, the Number of haplotypes [4, 11] was 9 and the “Number of total mutations” value [4, 11] was 19. For the same compound, the “Transition C→U, number of mutations” value [4, 11] was 3, the “Transition G→A, number of mutations” value [4, 11] was 3 and the “Transition U→C, number of mutations” value [4, 11] was 2. For the same compound, the “Transversion G→U, number of mutations” value [4, 11] was 1, the “Mf max (maximum mutation frequency)” value ([4]; passage 4, 3a 200 μM, Huh-7) was 6.6 per 10,000 nucleotides and the “Mf min (minimum mutation frequency)” value ([4]; passage 4, 3a 200 μM, Huh-7) was 3.9 per 10,000 nucleotides. For the same compound, the “Mfe (entity level mutation frequency)” value ([4]; passage 4, 3a 200 μM, Huh-7) was 1.6 ×10^−3, the “Number of clones with mutation/total” value ([4]; passage 4, 3a 200 μM, Huh-7) was 19/45 and the “Number of different mutations” value ([4]; passage 4, 3a 200 μM, Huh-7) was 16. For the same compound, the Number of haplotypes ([4]; passage 4, 3a 200 μM, Huh-7) was 15, the “Number of total mutations” value ([4]; passage 4, 3a 200 μM, Huh-7) was 27 and the “Transition A→G, number of mutations” value ([4]; passage 4, 3a 200 μM, Huh-7) was 2. The “Transition C→U, number of mutations” value ([4]; passage 4, 3a 200 μM, Huh-7) was 3, the “Transition G→A, number of mutations” value ([4]; passage 4, 3a 200 μM, Huh-7) was 3 and the “Transition U→C, number of mutations” value ([4]; passage 4, 3a 200 μM, Huh-7) was 4. The “Transversion C→A, number of mutations” value ([4]; passage 4, 3a 200 μM, Huh-7) was 2, the “Transversion U→A, number of mutations” value ([4]; passage 4, 3a 200 μM, Huh-7) was 2 and the CC50 at 72 h [5] was > 1000 µM. The CC50 at 72 h [3] was > 665 µM, the “genomic RNA in supernatant” value [6] was “no genomic RNA was detected” and the EC50 [7] was 20 ± 11 µM. The “infectious virus in supernatant” value [8] was “no infectious virus was detected”.
